The test system of data set [1] is human prostatic cancer cell line, DUPRO. Description: MTT assay, quinones, DUPRO. It is filed as cell-based. The conditions noted are these: Table 3, treatment time not given in cell, read-out: ID50 DUPRO. As for the experimental part:
(§1) Cell Culture: The human lung adenocarcinoma cell line, A549, and human prostatic cancer cell line, DUPRO, were a gift from Dr. M. Eileen Dolan, University of Chicago, Department of Medicine. A549 was grown in Ham's F-12K medium (Fisher Scientific, Itasca, Ill.) supplemented with 10% fetal bovine serum and 2 mM L-glutamine. DUPRO was grown in RPMI-1640 supplemented with 10% fetal bovine serum. The human colon carcinoma cell line, HT29, and the human breast carcinoma cell line, MCF7, were obtained from the American Type Culture Collection, Rockville, Md. HT29 cells were grown in McCoy's 5A medium (Gibco, BRL, Gaithersburg, Md.) supplemented with 10% fetal bovine serum. MCF7 cells were grown in Richter's Improved Modified Eagle's medium supplemented with 10% fetal bovine serum and 2.2 g/L sodium bicarbonate. The human prostate adenocarcinoma cell lines, LNCAP, PC-3 and DU145, were gifts from Dr. George Wilding, University of Wisconsin Comprehensive Cancer Center and the Department of Medicine, and were grown in Dulbecco's Modified Eagle's medium supplemented with a 5% fetal bovine serum. The malignant glioma cell line, U251MG NCI was obtained from the brain tumor tissue bank at the University of California, San Francisco Department of Neurosurgery, and was grown in Dulbecco's Modified Eagle's medium supplemented wth 10% fetal bovine serum. DUPRO, A549 and MCF7 cells were grown in 100 units/mL penicillin and 100 μg/mL streptomycin. HT29 and U251MG NCI cells were grown in 50 μg/mL gentamycin. LNCAP, PC-3 and DU145 cells were maintained in 1% antibiotic antimycotic solution (Sigma, St. Louis, Mo.). All cell cultures were maintained at 37° C. in 5% CO2/95% humidified air.
(§2) MTT assay. Exponentially growing monolayer cells were plated in 96 well plates at a density of 500 cells/well and allowed to grow for 24 h. Serially diluted drug solutions were added such that the final drug concentrations in the treatment media were between 0 and 35 μM. […] A microplate reader (E max, Molecular Devices, Sunnyvale, Calif.) set at 570 nm was used to determine the optical density. […]

Data set [2] concerns human prostate adenocarcinoma cell line PC-3. Description: MTT assay, quinones, PC-3. The conditions noted are these: Table 3, treatment time not given in cell, read-out: ID50 PC-3. It is filed as cell-based. As for the experimental part:
as §1
(§3) MTT assay. Exponentially growing monolayer cells were plated in 96 well plates at a density of 500 cells/well and allowed to grow for 24 h. Serially diluted drug solutions were added such that the final drug concentrations in the treatment media were between 0 and 35 μM. Cells were incubated with drug at either 4 hr or 72 hr. After 4 hr and 72 hr treatment, drugs were removed, fresh media (without) drug (100 uL) was added and cells were incubated for 6 days. After six days, 25 μL of a Dulbecco's phosphate-buffered saline solution containing 5 mg/mL of MTT (Thiazolyl blue) (Sigma) was added to each well and incubated for 4 h at 37° C. Then 100 μL of lysis buffer (20% sodium dodecyl sulfate, 50% N,N-dimethylformamide and 0.8% acetic acid, pH 4.7) was added to each well and incubated for an additional 22 h. A microplate reader (E max, Molecular Devices, Sunnyvale, Calif.) set at 570 nm was used to determine the optical density. Results were plotted as a ratio of the optical density in drug treated wells to the optical density in wells treated with vehicle alone. Plotting and estimation of ID50 values were accomplished with manufacturer supplied software. The data is presented below in Tables 3, 4, 5 and 6.

For data set [3], the system named is human prostate adenocarcinoma cell line DU145. Description: MTT assay, quinones, DU145. Particulars: DU-145, Table 3, treatment time not given in cell, read-out: ID50 DU145. It is filed as cell-based. As for the experimental part:
as §1, §2

Data set [4] has as its system human prostate cancer cells DUPRO. Description: MTT assay, polyamine analogs, DUPRO. It counts as cell-based. The conditions noted are these: survival of cultured DUPRO cells, figure legends; read-out: ED50 (the source's name). As for the experimental part: (§4) Human breast cancer cell line MCF7 was grown in Richter's Improved Modified Eagle's Medium supplemented with 10% fetal bovine serum (FBS) and 2.2 g/L sodium bicarbonate. Human brain tumor cell line U251 MG-NCI was grown in Dulbecco's Modified Eagle's Medium supplemented with 10% FBS. Human lung cancer cell line A549 was grown in Ham's F-12K medium (Cellgro, Mediatech, Inc., VA), supplemented with 10% FBS and 2 mM L-glutamine. Human colon cancer cell line HT29 was cultured in McCoy's 5A medium (Gibco, BRL, Gaithersburg, Md.) supplemented with 10% FBS. Human prostate cancer cell lines PC-3, LNCAP and DuPro were grown in RPMI 1640 Medium (Cellgro, Mediatech, Inc., VA) supplemented with 10% FBS. Another human prostate cancer cell line DU145 was grown in Dulbecco's Modified Eagle's Medium (Gibco, BRL, Gaithersburg, Md.) supplemented with 5% FBS. The A549, MCF7, PC3, LNCAP and DuPro cell lines were cultured in 100 units/mL penicillin and 100 μg/mL streptomycin. HT29 and U251MG cell lines were grown in 50 μg/mL gentamycin (Gibco, BRL, Gaithersburg, Md.). DU145 cell line was maintained in 1% antibitic-antimycotic solution (Sigma, St. Louis, Mo.). The cell cultures were maintained at 37° C. in 5% CO2/95% humidified air. DuPro cells were obtained from M. Eileen Dolan, University of Chicago. All other cells are available from the American Type Culture Collection, Rockville, Md.
(§5) A conventional MTT assay was used to evaluate percent cell survival. Exponentially growing monolayer cells were plated in 96-well plates at a density of 500 cells per well and allowed to grow for 24 hours. Serial dilutions of the drugs were added to the wells. Six days after drug treatment, 25 μl of MTT solution (5 mg/ml) was added to each well and incubated for 4 hours at 37° C. Then 100 μl of lysis buffer (20% sodium dodecyl sulfate, 50% DMF, and 0.8% acetic acid, pH 4.7) was added to each well and incubated for an additional 22 hours. A microplate reader (“EMAX”-brand, Molecular Devices, Sunnyvale, Calif.) set at 570 nm was used to determine the optical density of the cultures. Results are expressed as a ratio of the optical density in drug-treated wells to the optical density in wells treated with vehicle only.

Data set [5] has as its system human prostate cancer cells DU145. As to the kind of experiment: MTT assay, polyamine analogs, DU145. It counts as cell-based. The conditions noted are these: survival of cultured DU145 cells, figure legends; read-out: ED50 (the source's name). How it is done: as §4, §5
Data set [6] relates to human prostate cancer cells LNCAP. As to the kind of experiment: MTT assay, polyamine analogs, LNCAP. It counts as cell-based. The conditions noted are these: survival of cultured LNCAP cells, figure legends; read-out: ED50 (the source's name). How it is done:
as §4
A conventional MTT assay was used to evaluate percent cell survival. Exponentially growing monolayer cells were plated in 96-well plates at a density of 500 cells per well and allowed to grow for 24 hours. Serial dilutions of the drugs were added to the wells. Six days after drug treatment, 25 μl of MTT solution (5 mg/ml) was added to each well and incubated for 4 hours at 37° C. […] A microplate reader (“EMAX”-brand, Molecular Devices, Sunnyvale, Calif.) set at 570 nm was used to determine the optical density of the cultures. Results are expressed as a ratio of the optical density in drug-treated wells to the optical density in wells treated with vehicle only.

The test system of data set [7] is human breast carcinoma cell line, MCF7. As to the kind of experiment: MTT assay, quinones, MCF7. It counts as cell-based. Particulars: Table 4, treatment time not given in cell, read-out: ID50 Breast MCF7. As for the experimental part: as §1, §3
The test system of data set [8] is malignant glioma cell line, U251MG NCI. Description: MTT assay, quinones, U251MG NCI. The conditions noted are these: Homo sapiens, U-251; Table 4, treatment time not given in cell; read-out: ID50 Brain U251-MG. It counts as cell-based, human. As for the experimental part:
as §1, with “The malignant glioma cell line, U251MG NCI was obtained from the brain tumor tissue bank at the University of California, San Francisco Department of Neurosurgery, and was grown in Dulbecco's Modified Eagle's medium supplemented wth 10% fetal bovine serum. DUPRO, A549 and MCF7 cells were grown in 100 units/mL penicillin and 100 μg/mL streptomycin. HT29 and U251MG NCI cells were grown in 50 μg/mL gentamycin. LNCAP, PC-3 and DU145 cells were maintained in 1% antibiotic antimycotic solution (Sigma, St. Louis, Mo.). All cell cultures were maintained at 37° C. in 5% CO2/95% humidified air.” left out
MTT assay. […] A microplate reader (E max, Molecular Devices, Sunnyvale, Calif.) set at 570 nm was used to determine the optical density. […]

The subject of data set [9] is prostate xenograft tumors. Particulars: nude mice; cited from earlier work.
The conditions of data set [10]: in one study; cited from earlier work.

Structures are written as SMILES.

For `O=C1C=C(OCCCCCCCc2ccc(Nc3c4ccccc4nc4ccccc34)cc2)c2ccccc2C1=O` [SL-11064, Quinone-anilinoacridine], the IC50 in data set [1] stood at 2.2 µM; in data set [2], 0.7 µM; in [3], 0.13 µM.

Turning to `CCNCCCCNCCCCNCCCCNCCCCNC/C=C\CNCCCCNCCCCNCCCCNCCCCNCC` [SL-11150], the EC50 in [4] stood at 0.48 µM; in data set [5] it was 0.11 µM; in data set [6], 0.23 µM.

For `O=C1C=C(OCCCCCCO)c2ccccc2C1=O` [SL-11051], the values for the IC50 in data set [1], in [2] and in data set [3] were 19.3 µM, 17.1 µM and 11.2 µM, respectively.

On to `O=C1C=C(CCCCCCCCc2ccc(Nc3c4ccccc4nc4ccccc34)cc2)c2ccccc2C1=O` [SL-11125, Quinone-acridine], for which the IC50 in data set [1] is 7.9 µM; in data set [2], 5.9 µM; in data set [7], 5.1 µM; in data set [3], 0.13 µM.

`O=C1C=C(OCCCCCNC2CCCCC2)c2ccccc2C1=O` [SL-11060]: the IC50 is more than 31.2 µM in data set [8] and 17.2 µM in data set [7].

Take `CCNCCCCNCCCCNCCCCNCCCCNCC` [BE-4444, 1,19-bis(ethylamino)-5,10,15-triazanonadecane]: the “inhibition of prostate xenograft tumors” value in data set [9] is listed as “particularly effective in inhibiting prostate xenograft tumors in nude mice”.

As to `CC(/C=N/NC(=N)N)=N\NC(=N)N` [MGBG, methylglyoxal-bis-guanylhydrazone], in data set [10], the “side effects, drug deaths” value is “drug deaths occurred in over half of treated animals”.
